# Key:
# [1] = tested on: human patients with knee osteoarthritis; experiment: Procedure pain (NPRS) due to intraarticular trans-capsaicin, Breg pad vs Elasto-Gel wrap cooling (Example 8); format: in vivo; conditions: four patients (Example 8), 1 mg intraarticular
# Method: (§1) Human patients experiencing osteoarthritic knee joint pain were subjected to two different protocols for intraarticular administration of trans-capsaicin. Temporary pain expected due to administration of capsaicin was analyzed, along with the intraarticular temperature of the knee joint and the temperature of the patient's skin in the area to be cooled.
# One of the protocols utilized a Breg Knee WrapOn Polar Pad (as illustrated in FIG. 1) that utilizes circulating ice-water to achieve cooling, where the pad is placed on skin surrounding the knee in order to cool the knee joint. The other protocol utilized an Elasto-Gel All Purpose Therapy Wrap measuring 6 inches by 24 inches in size, in order to cool the knee joint. A temperature probe was placed into the intraarticular space of the patient's knee joint to measure intraarticular temperature of the knee joint. A temperature probe was also placed on the skin in the area to be cooled in order to measure skin temperature in the area to be cooled.
# Experimental procedure used was the same as described in Example 8 herein, except that an Elasto-Gel All Purpose Therapy Wrap measuring 6 inches by 24 inches in size was used to cool the knee joint, in lieu of the ice pack. The Elasto-Gel All Purpose Therapy Wrap was removed from a freezer (approximately 0° F.) just prior to use.
# [2] = tested on: human patients with bilateral knee osteoarthritis; experiment: Procedure pain (NPRS) due to intraarticular trans-capsaicin, Breg pad vs ice pack cooling (Example 7); format: in vivo; conditions: 1 mg intraarticular
# Method: as §1
# (§2) One of the protocols utilized a Breg Knee WrapOn Polar Pad (as illustrated in FIG. 1) that utilizes circulating ice-water to achieve cooling, where the pad is placed on skin surrounding the knee in order to cool the knee joint. The other protocol utilized ice-pack cooling, in which the patient's knee was wrapped with a stockinette and then the ice pack was positioned on top of the stockinette so that the ice pack is positioned over the patient's patella to thereby cool the knee joint. The ice pack was a LEADSTAR pain relief reusable cold therapy ice pack (size=6 inches). A temperature probe was placed into the intraarticular space of the patient's knee joint to measure intraarticular temperature of the knee joint. A temperature probe was also placed on the skin in the area to be cooled in order to measure skin temperature in the area to be cooled.
# Five human patients suffering from moderate to severe painful bilateral knee osteoarthritis were recruited for this study evaluating the impact that cooling protocol has on the magnitude of temporary pain experienced by the patient due to administration of capsaicin. […] Patients that participated in the study passed the following screening criteria and meet the patient inclusion and exclusion criteria are set forth below. As part of patient screening, patients received an intradermal injection of 100 μL (100 μg) capsaicin into the non-dominant volar forearm. To be eligible to enter the study, patients were able to tolerate the capsaicin injection. Screening patients rated the pain from capsaicin injection at 5, 10, 20, and 30 minutes after injection using a 0-10 Numerical Pain Rating Scale, where “0” equals no pain and “10” equals worst possible pain.
# as §2, with “ice pack (having a surface for application to the patient, wherein said surface has a diameter of approximately six inches) is positioned” for “ice pack is positioned”, “knee joint. A temperature” for “knee joint. The ice pack was a LEADSTAR pain relief reusable cold therapy ice pack (size=6 inches). A temperature”, “knee joint. At the discretion of the physician performing the procedure, in order to reduce discomfort for the patient, the protocol authorized the physician to instill a volume of 1-2 cc of 2% w/w lidocaine (without epinephrine) into the skin and subcutaneous tissue of the knee at the site of intra-articular probe insertion. A temperature” for “knee joint. A temperature”
# One the first day of the study, patients were randomized so that (i) three patients receiving cooling of the knee joint using the Breg Knee WrapOn Polar Pad and (ii) two patients will receive ice-pack cooling over the patella as set forth above. Patients were subjected to the following procedure: • Placement of intraarticular temperature probe and skin temperature probe. […]
structure (smiles),measurement,setting,value
"COc1cc(CNC(=O)CCCCC=CC(C)C)ccc1O [trans-capsaicin, N-[(4-hydroxy-3-methoxyphenyl)methyl]-8-methylnon-6-enamide]",Knee Pain (NPRS),"[1]; Ice-Gel Pack (Elasto-Gel wrap), 20 min",0.8 (+/−0.5)
same,Knee Pain (NPRS),"[1]; Ice-Gel Pack (Elasto-Gel wrap), 30 min",0.5 (+/−0.6)
same,Knee Pain (NPRS),"[1]; Ice-Gel Pack (Elasto-Gel wrap), 50 min",0.8 (+/−1.0)
same,Knee Pain (NPRS),"[1]; Ice-Gel Pack (Elasto-Gel wrap), 70 min",4.8 (+/−3.2)
same,Knee Pain (NPRS),"[1]; Ice-Gel Pack (Elasto-Gel wrap), 80 min",4.3 (+/−3.0)
same,Knee Pain (NPRS),"[1]; Ice-Gel Pack (Elasto-Gel wrap), 90 min",3.0 (+/−1.8)
same,Knee Pain (NPRS),"[1]; Ice-Gel Pack (Elasto-Gel wrap), 100 min",2.8 (+/−1.5)
same,Knee Pain (NPRS),"[1]; Ice-Gel Pack (Elasto-Gel wrap), 110 min",2.8 (+/−2.1)
same,Knee Pain (NPRS),"[1]; Ice-Gel Pack (Elasto-Gel wrap), 120 min",4.5 (+/−3.3)
same,Knee Pain (NPRS),"[1]; Ice-Gel Pack (Elasto-Gel wrap), 130 min",3.0 (+/−1.4)
same,Knee Pain (NPRS),"[1]; Ice-Gel Pack (Elasto-Gel wrap), Baseline",1.0 (+/−0.8)
same,Knee Pain (NPRS),"[1]; Standard Cooling Device (Breg pad), 20 min",0.5 (+/−0.6)
same,Knee Pain (NPRS),"[1]; Standard Cooling Device (Breg pad), 30 min",0.5 (+/−0.6)
same,Knee Pain (NPRS),"[1]; Standard Cooling Device (Breg pad), 50 min",0.8 (+/−1.0)
same,Knee Pain (NPRS),"[1]; Standard Cooling Device (Breg pad), 70 min",2.5 (+/−3.7)
same,Knee Pain (NPRS),"[1]; Standard Cooling Device (Breg pad), 80 min",2.5 (+/−3.0)
same,Knee Pain (NPRS),"[1]; Standard Cooling Device (Breg pad), 90 min",2.5 (+/−2.4)
same,Knee Pain (NPRS),"[1]; Standard Cooling Device (Breg pad), 100 min",1.8 (+/−1.5)
same,Knee Pain (NPRS),"[1]; Standard Cooling Device (Breg pad), 110 min",1.8 (+/−1.5)
same,Knee Pain (NPRS),"[1]; Standard Cooling Device (Breg pad), 120 min",1.3 (+/−1.3)
same,Knee Pain (NPRS),"[1]; Standard Cooling Device (Breg pad), 130 min",1.5 (+/−1.0)
same,Knee Pain (NPRS),"[1]; Standard Cooling Device (Breg pad), Baseline",0.5 (+/−0.6)
same,Knee Pain (NPRS),"[2]; Ice Pack cooling, 20 min, all five patients (Example 7)",0.4 (+/−0.5)
same,Knee Pain (NPRS),"[2]; Ice Pack cooling, 20 min, four patients (Example 7)",0.5 (+/−0.6)
same,Knee Pain (NPRS),"[2]; Ice Pack cooling, 30 min, all five patients (Example 7)",0.3 (+/−0.5)
same,Knee Pain (NPRS),"[2]; Ice Pack cooling, 30 min, four patients (Example 7)",0.3 (+/−0.6)
same,Knee Pain (NPRS),"[2]; Ice Pack cooling, 40 min, all five patients (Example 7)",0.0
same,Knee Pain (NPRS),"[2]; Ice Pack cooling, 40 min, four patients (Example 7)",0.0
same,Knee Pain (NPRS),"[2]; Ice Pack cooling, 50 min, all five patients (Example 7)",0.3 (+/−0.5)
same,Knee Pain (NPRS),"[2]; Ice Pack cooling, 50 min, four patients (Example 7)",0.3 (+/−0.5)
same,Knee Pain (NPRS),"[2]; Ice Pack cooling, 70 min, all five patients (Example 7)",7.3 (+/−1.9)
same,Knee Pain (NPRS),"[2]; Ice Pack cooling, 70 min, four patients (Example 7)",7.3 (+/−1.9)
same,Knee Pain (NPRS),"[2]; Ice Pack cooling, 80 min, all five patients (Example 7)",5.4 (+/−3.7)
same,Knee Pain (NPRS),"[2]; Ice Pack cooling, 80 min, four patients (Example 7)",6.8 (+/−2.5)
same,Knee Pain (NPRS),"[2]; Ice Pack cooling, 90 min, all five patients (Example 7)",4.0 (+/−1.6)
same,Knee Pain (NPRS),"[2]; Ice Pack cooling, 90 min, four patients (Example 7)",4.3 (+/−1.7)
same,Knee Pain (NPRS),"[2]; Ice Pack cooling, 100 min, all five patients (Example 7)",3.2 (+/−1.6)
same,Knee Pain (NPRS),"[2]; Ice Pack cooling, 100 min, four patients (Example 7)",3.5 (+/−1.7)
same,Knee Pain (NPRS),"[2]; Ice Pack cooling, 110 min, all five patients (Example 7)",2.4 (+/−2.1)
same,Knee Pain (NPRS),"[2]; Ice Pack cooling, 110 min, four patients (Example 7)",2.8 (+/−2.2)
same,Knee Pain (NPRS),"[2]; Ice Pack cooling, 120 min, all five patients (Example 7)",1.8 (+/−1.3)
same,Knee Pain (NPRS),"[2]; Ice Pack cooling, 120 min, four patients (Example 7)",2.0 (+/−1.4)
same,Knee Pain (NPRS),"[2]; Ice Pack cooling, 130 min, all five patients (Example 7)",2.0 (+/−1.0)
same,Knee Pain (NPRS),"[2]; Ice Pack cooling, 130 min, four patients (Example 7)",2.3 (+/−1.0)
same,Knee Pain (NPRS),"[2]; Ice Pack cooling, 140 min, all five patients (Example 7)",1.8 (+/−1.1)
same,Knee Pain (NPRS),"[2]; Ice Pack cooling, 140 min, four patients (Example 7)",1.8 (+/−1.3)
same,Knee Pain (NPRS),"[2]; Ice Pack cooling, 150 min, all five patients (Example 7)",1.4 (+/−0.9)
same,Knee Pain (NPRS),"[2]; Ice Pack cooling, 150 min, four patients (Example 7)",1.3 (+/−1.0)
same,Knee Pain (NPRS),"[2]; Ice Pack cooling, 160 min, all five patients (Example 7)",1.0 (+/−1.4)
same,Knee Pain (NPRS),"[2]; Ice Pack cooling, 160 min, four patients (Example 7)",2.0
same,Knee Pain (NPRS),"[2]; Ice Pack cooling, 170 min, all five patients (Example 7)",0.5 (+/−0.7)
same,Knee Pain (NPRS),"[2]; Ice Pack cooling, 170 min, four patients (Example 7)",1.0
same,Knee Pain (NPRS),"[2]; Ice Pack cooling, 180 min, all five patients (Example 7)",7.0
same,Knee Pain (NPRS),"[2]; Ice Pack cooling, 180 min, four patients (Example 7)",7.0
same,Knee Pain (NPRS),"[2]; Ice Pack cooling, 190 min, all five patients (Example 7)",2.0
same,Knee Pain (NPRS),"[2]; Ice Pack cooling, 190 min, four patients (Example 7)",2.0
same,Knee Pain (NPRS),"[2]; Ice Pack cooling, Baseline, all five patients (Example 7)",1.0 (+/−2.2)
same,Knee Pain (NPRS),"[2]; Ice Pack cooling, Baseline, four patients (Example 7)",1.3 (+/−2.5)
same,Knee Pain (NPRS),"[2]; Standard Cooling Device (Breg pad), 20 min, all five patients (Example 7)",1.0 (+/−1.7)
same,Knee Pain (NPRS),"[2]; Standard Cooling Device (Breg pad), 20 min, four patients (Example 7)",1.3 (+/−1.9)
same,Knee Pain (NPRS),"[2]; Standard Cooling Device (Breg pad), 30 min, all five patients (Example 7)",1.2 (+/−1.1)
same,Knee Pain (NPRS),"[2]; Standard Cooling Device (Breg pad), 30 min, four patients (Example 7)",1.3 (+/−1.3)
same,Knee Pain (NPRS),"[2]; Standard Cooling Device (Breg pad), 50 min, all five patients (Example 7)",0.8 (+/−0.8)
same,Knee Pain (NPRS),"[2]; Standard Cooling Device (Breg pad), 50 min, four patients (Example 7)",1.0 (+/−0.8)
same,Knee Pain (NPRS),"[2]; Standard Cooling Device (Breg pad), 70 min, all five patients (Example 7)",5.0 (+/−2.9)
same,Knee Pain (NPRS),"[2]; Standard Cooling Device (Breg pad), 70 min, four patients (Example 7)",4.0 (+/−2.2)
same,Knee Pain (NPRS),"[2]; Standard Cooling Device (Breg pad), 80 min, all five patients (Example 7)",4.0 (+/−1.4)
same,Knee Pain (NPRS),"[2]; Standard Cooling Device (Breg pad), 80 min, four patients (Example 7)",3.8 (+/−1.5)
same,Knee Pain (NPRS),"[2]; Standard Cooling Device (Breg pad), 90 min, all five patients (Example 7)",2.8 (+/−1.6)
same,Knee Pain (NPRS),"[2]; Standard Cooling Device (Breg pad), 90 min, four patients (Example 7)",2.5 (+/−1.7)
same,Knee Pain (NPRS),"[2]; Standard Cooling Device (Breg pad), 100 min, all five patients (Example 7)",2.0 (+/−1.4)
same,Knee Pain (NPRS),"[2]; Standard Cooling Device (Breg pad), 100 min, four patients (Example 7)",1.8 (+/−1.5)
same,Knee Pain (NPRS),"[2]; Standard Cooling Device (Breg pad), 110 min, all five patients (Example 7)",1.2 (+/−0.8)
same,Knee Pain (NPRS),"[2]; Standard Cooling Device (Breg pad), 110 min, four patients (Example 7)",1.3 (+/−1.0)
same,Knee Pain (NPRS),"[2]; Standard Cooling Device (Breg pad), 120 min, all five patients (Example 7)",1.0 (+/−0.7)
same,Knee Pain (NPRS),"[2]; Standard Cooling Device (Breg pad), 120 min, four patients (Example 7)",1.0 (+/−0.8)
same,Knee Pain (NPRS),"[2]; Standard Cooling Device (Breg pad), 130 min, all five patients (Example 7)",0.6 (+/−0.5)
same,Knee Pain (NPRS),"[2]; Standard Cooling Device (Breg pad), 130 min, four patients (Example 7)",0.8 (+/−0.5)
same,Knee Pain (NPRS),"[2]; Standard Cooling Device (Breg pad), 140 min, all five patients (Example 7)",1.2 (+/−0.8)
same,Knee Pain (NPRS),"[2]; Standard Cooling Device (Breg pad), 140 min, four patients (Example 7)",1.0 (+/−0.8)
same,Knee Pain (NPRS),"[2]; Standard Cooling Device (Breg pad), 150 min, all five patients (Example 7)",1.2 (+/−1.1)
same,Knee Pain (NPRS),"[2]; Standard Cooling Device (Breg pad), 150 min, four patients (Example 7)",1.3 (+/−1.3)
same,Knee Pain (NPRS),"[2]; Standard Cooling Device (Breg pad), Baseline, all five patients (Example 7)",1.8 (+/−2.4)
same,Knee Pain (NPRS),"[2]; Standard Cooling Device (Breg pad), Baseline, four patients (Example 7)",2.0 (+/−2.7)
